Reference: PubChem BioAssay AID2060362 (Molecular Pharmacology Branch, DTP, NCI, 2025)
“And” between values parts separate entries of the source, which are not always exact repeats. Identical values can stand only once. The source made the active and inactive calls. How the source made its calls: active means viability on the fitted dose curve at most 10% of control; inactive means the rest.

System: 128128-338-R-J1-PDC spheroids, viability % test/control
Test: Anticancer human tumor 128128-338-R-J1-PDC patient-derived melanoma cell line growth inhibition [TAK]
Settings: spheroids with HUVEC and MSC; for viability, T/C: stronger effect = lower value
Source text: Combinatorial screen of targeted agents with TAK-243 and ipatasertib in multi-cell type tumor spheroids
A high-throughput screen of multi-cell type tumor spheroids was designed to identify active combinations of targeted small molecules and TAK-243 or ipatasertib. Complex spheroids include a stromal component modeled by human endothelial cells (HUVEC) and fibroblasts modeled by human mesenchymal stem cells (MSCs). The concentration ranges selected for each drug and investigational agent were based upon clinically achievable concentrations if the clinical Cmax of the agent was known.
Compounds. The drugs and investigational agents: TAK-243 (785004), ipatasertib (767898), everolimus (733504), selumetinib (741078), bortezomib (756655), trametinib (758246), ixazomib (758254), vemurafenib (761431), dabrafenib (764134), sapanisertib (764658), alpelisib (765974), and copanlisib (816437), were obtained from the National Cancer Institute (NCI) Developmental Therapeutics Program Chemical Repository. The FDA-approved anticancer drug set is available from the NCI Developmental Therapeutics Program. […] The stock solutions were prepared in dimethyl sulfoxide (DMSO, Sigma-Aldrich, St. Louis, MO, cat. D2650) at 800-fold the tested concentration and stored at -70 degrees C prior to their use. All drugs and investigational agents were tested over a range starting from a high concentration at or near the clinical Cmax and decreasing in half-log increments. If the clinical Cmax for an agent had not been determined, the highest concentration tested was 10 microM.
NCI60 Cell Culture. NCI60 cell lines were obtained from the NCI Developmental Therapeutics Program Tumor Repository. For each lot of cells, the Repository performed Applied Biosystems AmpFLSTR Identifiler testing with PCR amplification to confirm consistency with the published Identifier STR profile for each cell line. Cells were kept in continuous culture for no more than 20 passages. The optimal seeding densities for each of the cell lines at each time point assessed were determined prior to performing the concentration response studies. Briefly, the NCI60 human tumor lines were grown as monolayers in RPMI 1640 medium supplemented with 10% FBS and 2 mmol/L L-glutamine.
An additional 2 lines were from the NCI60 cell line panel including melanomas, MALME-3M and SK-MEL-2. Pooled donor human umbilical vein endothelial cells (HUVEC, Lonza, cat. CC-2519) and human mesenchymal stem cells (hMSC, Lonza, cat. PT-2501) were purchased from Lonza (Walkersville, MD).
PDMR cell lines were grown in complete medium (DC medium): Dulbecco's modified Eagle's medium (DMEM)/F12 supplemented with 5% fetal bovine serum (FBS), 2 mM L-glutamine, 100 U/mL penicillin and 100 µg/ml streptomycin, 0.4 µg/ml hydrocortisone, 10 ng/ml epidermal growth factor (EGF) recombinant human protein, 24 µg/mL adenine, and 0.1 mg/mL primocin. During culture from frozen stock vials, PDMR cells were cultured in the same medium containing 10 µM Y-27632 (see Table 3). The PDCs were cultured in complete DMEM/F12 media without 10 microM Y-27632 dihydrochloride for at least two passages prior to the screen. The pooled donor HUVEC and hMSC were cultured in endothelial cell growth medium 2 (PromoCell, Heidelberg, Germany, cat. C-22011) and mesenchymal stem cell growth medium 2 (PromoCell, cat. C-28009), respectively. For all experiments, HUVEC and hMSC were used at passages </=5.
For the pre-screen, cell seeding densities were determined from a titration spanning the range from 5,000 to 313 cells per well. The mct-spheroids including 60% malignant cells, 25% HUVEC and 15% MSC dispensed as a mixture into U-bottom Ultra-Low Attachment 384-well plates (Corning, NY)
High-throughput Drug Combination Screening.
Prior to their inoculation into 384-well plates, malignant cells, HUVEC, and hMSC were removed from T flasks using TrypLE express (Thermo Fisher Scientific, cat. 12605036) and harvested by centrifugation for 5 min at 233 x g. […]

[1] = curve of first compound, second compound 0.3 µM
[2] = curve of first compound, second compound 0.949 µM
[3] = curve of first compound, second compound 3 µM
[4] = curve of first compound, second compound 9.49 µM
[5] = curve of first compound, second compound 30 µM
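Further: spheroids exposed to compounds for 7 days.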
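Wherever viability, T/C is given: 100% = DMSO vehicle wells.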

## COC1CC2CCC(C)C(O)(O2)C(=O)C(=O)N2CCCCC2C(=O)OC(C(C)CC2CCC(OCCO)C(OC)C2)CC(=O)C(C)C=C(C)C(O)C(OC)C(=O)C(C)CC(C)C=CC=CC=C1C (configuration not stated)
Compound 0.000316 µM
  viability, T/C: 108% and 104%
Compound 0.001 µM
  viability, T/C: 102%
Compound 0.00316 µM
  viability, T/C: 96.4% and 93.1%
Compound 0.01 µM
  viability, T/C: 79.5% and 86.7%
Compound 0.0316 µM
  viability, T/C: 64.5% and 67.5%
Compound 0.1 µM
  viability, T/C: 51.6% and 53.8%
Curve of compound
  IC50: > 100 nM

## CCCS(=O)(=O)Nc1ccc(F)c(C(=O)c2c[nH]c3ncc(-c4ccc(Cl)cc4)cc23)c1F + CC(C)NCC(C(=O)N1CCN(c2ncnc3c2C(C)CC3O)CC1)c1ccc(Cl)cc1
[1]
  IC50: 1070 nM
[2]
  IC50: 1110 nM
[3]
  IC50: 462 nM
[4]
  IC50: < 316 nM
[5]
  IC50: < 316 nM
Second compound 0.3 µM, first compound 0.316 µM
  viability, T/C: 82.5%
Second compound 0.3 µM, first compound 1 µM
  viability, T/C: 52.1%
Second compound 0.3 µM, first compound 3.16 µM
  viability, T/C: 12.2%
Second compound 0.3 µM, first compound 10 µM
  viability, T/C: 0.57%
Second compound 0.3 µM, first compound 31.6 µM
  viability, T/C: 0.08%
Second compound 0.3 µM, first compound 100 µM
  viability, T/C: 0.68%
Second compound 0.949 µM, first compound 0.316 µM
  viability, T/C: 74.3%
Second compound 0.949 µM, first compound 1 µM
  viability, T/C: 54.4%
Second compound 0.949 µM, first compound 3.16 µM
  viability, T/C: 7.73%
Second compound 0.949 µM, first compound 10 µM
  viability, T/C: 0.33%
Second compound 0.949 µM, first compound 31.6 µM
  viability, T/C: 0.08%
Second compound 0.949 µM, first compound 100 µM
  viability, T/C: 0.4%
Second compound 3 µM, first compound 0.316 µM
  viability, T/C: 63.9%
Second compound 3 µM, first compound 1 µM
  viability, T/C: 22.1%
Second compound 3 µM, first compound 3.16 µM
  viability, T/C: 1.94%
Second compound 3 µM, first compound 10 µM
  viability, T/C: 0.06%
Second compound 3 µM, first compound 31.6 µM
  viability, T/C: 0.03%
Second compound 3 µM, first compound 100 µM
  viability, T/C: 0.24%
Second compound 9.49 µM, first compound 0.316 µM
  viability, T/C: 30.6%
Second compound 9.49 µM, first compound 1 µM
  viability, T/C: 9.75%
Second compound 9.49 µM, first compound 3.16 µM
  viability, T/C: 0.65%
Second compound 9.49 µM, first compound 10 µM
  viability, T/C: 0.02%
Second compound 9.49 µM, first compound 31.6 µM
  viability, T/C: 0.03%
Second compound 9.49 µM, first compound 100 µM
  viability, T/C: 0.11%
Second compound 30 µM, first compound 0.316 µM
  viability, T/C: 2.32%
Second compound 30 µM, first compound 1 µM
  viability, T/C: 0.63%
Second compound 30 µM, first compound 3.16 µM
  viability, T/C: 0.12%
Second compound 30 µM, first compound 10 µM
  viability, T/C: 0.07%
Second compound 30 µM, first compound 31.6 µM
  viability, T/C: 0.08%
Second compound 30 µM, first compound 100 µM
  viability, T/C: 0.12%

## COC1CC2CCC(C)C(O)(O2)C(=O)C(=O)N2CCCCC2C(=O)OC(C(C)CC2CCC(OCCO)C(OC)C2)CC(=O)C(C)C=C(C)C(O)C(OC)C(=O)C(C)CC(C)C=CC=CC=C1C (configuration not stated) + CC(C)NCC(C(=O)N1CCN(c2ncnc3c2C(C)CC3O)CC1)c1ccc(Cl)cc1
[1]
  IC50: > 100 nM
[2]
  IC50: 18.5 nM
[3]
  IC50: 7.41 nM
[4]
  IC50: 0.462 nM
[5]
  IC50: < 0.316 nM
Second compound 0.3 µM, first compound 0.000316 µM
  viability, T/C: 110%
Second compound 0.3 µM, first compound 0.001 µM
  viability, T/C: 99.9%
Second compound 0.3 µM, first compound 0.00316 µM
  viability, T/C: 87.6%
Second compound 0.3 µM, first compound 0.01 µM
  viability, T/C: 69.1%
Second compound 0.3 µM, first compound 0.0316 µM
  viability, T/C: 56.6%
Second compound 0.3 µM, first compound 0.1 µM
  viability, T/C: 54.4%
Second compound 0.949 µM, first compound 0.000316 µM
  viability, T/C: 110%
Second compound 0.949 µM, first compound 0.001 µM
  viability, T/C: 97.4%
Second compound 0.949 µM, first compound 0.00316 µM
  viability, T/C: 68.8%
Second compound 0.949 µM, first compound 0.01 µM
  viability, T/C: 56.4%
Second compound 0.949 µM, first compound 0.0316 µM
  viability, T/C: 48.8%
Second compound 0.949 µM, first compound 0.1 µM
  viability, T/C: 35.6%
Second compound 3 µM, first compound 0.000316 µM
  viability, T/C: 88%
Second compound 3 µM, first compound 0.001 µM
  viability, T/C: 77.4%
Second compound 3 µM, first compound 0.00316 µM
  viability, T/C: 62.5%
Second compound 3 µM, first compound 0.01 µM
  outcome: inactive
Second compound 3 µM, first compound 0.0316 µM
  outcome: inactive
Second compound 3 µM, first compound 0.1 µM
  outcome: inactive
Second compound 9.49 µM, first compound 0.000316 µM
  viability, T/C: 56.3%
Second compound 9.49 µM, first compound 0.001 µM
  viability, T/C: 37.2%
Second compound 9.49 µM, first compound 0.00316 µM
  viability, T/C: 20.4%
Second compound 9.49 µM, first compound 0.01 µM
  viability, T/C: 11.9%
Second compound 9.49 µM, first compound 0.0316 µM
  viability, T/C: 9.65%
Second compound 9.49 µM, first compound 0.1 µM
  viability, T/C: 9.71%
Second compound 30 µM, first compound 0.000316 µM
  viability, T/C: 9.06%
Second compound 30 µM, first compound 0.001 µM
  viability, T/C: 7.48%
Second compound 30 µM, first compound 0.00316 µM
  viability, T/C: 3.65%
Second compound 30 µM, first compound 0.01 µM
  viability, T/C: 2.31%
Second compound 30 µM, first compound 0.0316 µM
  viability, T/C: 2.3%
Second compound 30 µM, first compound 0.1 µM
  viability, T/C: 2.06%
